From patent US20230107941A1, “HEPATITIS B CAPSID ASSEMBLY MODULATORS” (Venatorx Pharmaceuticals, Inc., priority 2019, published 2023) come the findings set out here.

One data set has as its system HBV. In words: In vitro antiviral assay: anti-HBV replication in HepAD38 cells (extracellular HBV DNA by QPCR). Conditions: Hepatitis B virus, HePAD38, 168 h, 7 days incubation, extracellular HBV DNA by QPCR, read-out: Anti-HBV EC50. Format: cell-based, hepatitis B virus (genotype D, serotype ayw). The gist of the method: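 Read-out is extracellular HBV DNA (copies/mL, QPCR standard curve) after 7-day exposure of tet-free HepAD38 cells to 10-fold dilutions from 1 μM down to 10 pM. Values normalised to DMSO vehicle; EC50 from 4-parameter nonlinear regression, with entecavir validating each run.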

Data set [1] can be described thus: In vitro cytotoxicity assay (MTT cell viability) in HepG2 cells. Format: cell-based, human. The following applies: human. The gist of the method: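 CC50 was derived by 4-parameter fit of viability relative to vehicle controls, measured as MTT formazan absorbance at 492 nm after 3–4 h of reagent and DMSO solubilization. Before that, HepG2 cells seeded overnight at 20,000/well were incubated 7 days at 37°C with compound from 30 μM down to 1.0 nM in half-log steps.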

The term EC50 denotes the concentration needed to bring the measured effect to its halfway point. The term CC50 denotes the concentration that lowers cell viability or growth by half. A higher CC50 goes with better tolerance by the cells. As to `CC[C@]1(NC(=O)C(=O)c2c(C)c(C(=O)Nc3ccc(F)c(C)c3)c(C)n2C)CC[C@H](O)CC1` [Example 4, 5-(2-(((1r,4r)-1-ethyl-4-hydroxycyclohexyl)amino)-2-oxoacetyl)-N-(4-fluoro-3-methylphenyl)-1,2,4-trimethyl-1H-pyrrole-3-carboxamide], the EC50 with HBV was below 0.05 µM. Moreover, the CC50 at 7 days in data set [1] was above 30 µM.
In the same order, the values of `CCc1c(C(=O)Nc2ccc(F)c(C)c2)c(C)n(C)c1C(=O)C(=O)N[C@]1(C)CC[C@H](O)CC1` [Example 7, 4-ethyl-N-(4-fluoro-3-methylphenyl)-5-(2-(((1s,4s)-4-hydroxy-1-methylcyclohexyl)amino)-2-oxoacetyl)-1,2-dimethyl-1H-pyrrole-3-carboxamide] are below 0.05 µM and above 30 µM.
In the same order, the values of `Cc1cc(NC(=O)c2c(C)c(C(=O)C(=O)NCC(C)(C)O)n(C)c2-c2cccnc2)ccc1F` [Example 154, N-(4-fluoro-3-methylphenyl)-5-(2-((2-hydroxy-2-methylpropyl)amino)-2-oxoacetyl)-1,4-dimethyl-2-(pyridin-3-yl)-1H-pyrrole-3-carboxamide] are 0.05 to 0.499 µM and above 30 µM.
In the same order, the values of `Cc1cc(NC(=O)c2c(C)c(C(=O)C(=O)N[C@H]3CC[C@@H](S(C)(=O)=O)CC3)n(C)c2C2CCCCC2)ccc1F` [Example 117, 2-cyclohexyl-N-(4-fluoro-3-methylphenyl)-1,4-dimethyl-5-(2-(((1s,4s)-4-(methylsulfonyl)cyclohexyl)amino)-2-oxoacetyl)-1H-pyrrole-3-carboxamide] are above 1 µM and above 30 µM.
For `Cc1cc(NC(=O)c2c(C)c(C(=O)C(=O)N[C@H]3CC[C@@H](O)CC3)n(C)c2-c2ccncc2)ccc1F` [Example 163, N-(4-fluoro-3-methylphenyl)-5-(2-(((1s,4s)-4-hydroxycyclohexyl)amino)-2-oxoacetyl)-1,4-dimethyl-2-(pyridin-4-yl)-1H-pyrrole-3-carboxamide], the EC50 with HBV was above 1 µM. In data set [1], this molecule had a CC50 at 7 days above 30 µM.
In the same order, the values of `Cc1c(C(=O)Nc2ccc(F)cc2)c(C)n(C)c1C(=O)C(=O)N[C@]1(C)CC[C@@H](O)CC1` [Example 137, N-(4-fluorophenyl)-5-(2-(((1r,4r)-4-hydroxy-1-methylcyclohexyl)amino)-2-oxoacetyl)-1,2,4-trimethyl-1H-pyrrole-3-carboxamide] are below 0.05 µM and above 30 µM.
For the molecule `Cc1cc(NC(=O)c2c(C)c(C(=O)C(=O)NC3CCc4nnn(C)c4C3)n(C)c2C)ccc1F` (stereo not shown) [Example 85, N-(4-fluoro-3-methylphenyl)-1,2,4-trimethyl-5-(2-((1-methyl-4,5,6,7-tetrahydro-1H-benzo[d][1,2,3]triazol-6-yl)amino)-2-oxoacetyl)-1H-pyrrole-3-carboxamide], the EC50 in the data set on HBV was below 0.05 µM. Also, the 50% cytotoxic concentration (CC50) at 7 days in data set [1] was above 30 µM.
In the same order, the values of `Cc1cc(NC(=O)c2c(C)c(C(=O)C(=O)N[C@]3(C)C[C@H](O)C3)n(C)c2C2CCCC2)ccc1F` [Example 132, 2-cyclopentyl-N-(4-fluoro-3-methylphenyl)-5-(2-(((1s,3s)-3-hydroxy-1-methylcyclobutyl)amino)-2-oxoacetyl)-1,4-dimethyl-1H-pyrrole-3-carboxamide] are 0.05 to 0.499 µM and above 30 µM.
Take `Cc1cc(NC(=O)c2c(C)c(C(=O)C(=O)N[C@@H]3CCCN(C(=O)Nc4ccc(F)c(F)c4)C3)n(C)c2C)ccc1F` [Example 35, (R)-N-(3,4-difluorophenyl)-3-(2-(4-((4-fluoro-3-methylphenyl)carbamoyl)-1,3,5-trimethyl-1H-pyrrol-2-yl)-2-oxoacetamido)piperidine-1-carboxamide]: the EC50 with HBV fell in the range of 0.5 to 1 µM. Moreover, the 50% cytotoxic concentration (CC50) at 7 days in data set [1] is 5 to 30 µM.
`Cc1cc(NC(=O)c2c(C3CC3)c(C(=O)C(=O)NC3CCN(c4cccnn4)CC3)n(C)c2C)ccc1F` [Example 103, 4-cyclopropyl-N-(4-fluoro-3-methylphenyl)-1,2-dimethyl-5-(2-oxo-2-((1-(pyridazin-3-yl)piperidin-4-yl)amino)acetyl)-1H-pyrrole-3-carboxamide]: the EC50 with HBV fell in the range of 0.5 to 1 µM. The molecule further showed a CC50 at 7 days in data set [1] above 30 µM.
In the same order, the values of `Cc1cc(NC(=O)c2c(C)c(C(=O)C(=O)N[C@@H]3CN[C@H](C(=O)O)C3)n(C)c2C)ccc1F` [Example 179, (2S,4S)-4-(2-(4-((4-fluoro-3-methylphenyl)carbamoyl)-1,3,5-trimethyl-1H-pyrrol-2-yl)-2-oxoacetamido)pyrrolidine-2-carboxylic acid] are above 1 µM and above 30 µM.
In the same order, the values of `Cc1cc(NC(=O)c2c(C)c(C(=O)C(=O)N[C@H]3CN[C@H](C(=O)O)C3)n(C)c2C)ccc1F` [Example 173, (2S,4R)-4-(2-(4-((4-fluoro-3-methylphenyl)carbamoyl)-1,3,5-trimethyl-1H-pyrrol-2-yl)-2-oxoacetamido)pyrrolidine-2-carboxylic acid] are 0.5 to 1 µM and above 30 µM.
With `CCc1c(C(=O)Nc2ccc(F)c(C)c2)c(C)c(C(=O)C(=O)N[C@]2(C)CC[C@H](O)CC2)n1C` [Example 107, 2-ethyl-N-(4-fluoro-3-methylphenyl)-5-(2-(((1s,4s)-4-hydroxy-1-methylcyclohexyl)amino)-2-oxoacetyl)-1,4-dimethyl-1H-pyrrole-3-carboxamide], the EC50 in the data set with HBV is below 0.05 µM. Besides, in data set [1], the 50% cytotoxic concentration (CC50) at 7 days was above 30 µM.
In the same order, the values of `Cc1c(C(=O)Nc2ccc(F)c(Br)c2)c(C)n(C)c1C(=O)C(=O)NC(C)(C)C` [Example 60, N-(3-bromo-4-fluorophenyl)-5-(2-(tert-butylamino)-2-oxoacetyl)-1,2,4-trimethyl-1H-pyrrole-3-carboxamide] are below 0.05 µM and above 30 µM.
In the same order, the values of `Cc1c(C(=O)Nc2ccc(N3CCOCC3)nc2)c(C)n(C)c1C(=O)C(=O)NC(C)(C)C` [Example 62, 5-(2-(tert-butylamino)-2-oxoacetyl)-1,2,4-trimethyl-N-(6-morpholinopyridin-3-yl)-1H-pyrrole-3-carboxamide] are above 1 µM and above 30 µM.
In the same order, the values of `Cc1c(C(=O)Nc2ccc(F)c(Br)c2)c(C)n(C)c1C(=O)C(=O)N[C@]1(C)CC[C@@H](O)CC1` [Example 18, N-(3-bromo-4-fluorophenyl)-5-(2-(((1r,4r)-4-hydroxy-1-methylcyclohexyl)amino)-2-oxoacetyl)-1,2,4-trimethyl-1H-pyrrole-3-carboxamide] are below 0.05 µM and above 30 µM.
As for `CCOC(=O)CO[C@H]1CC[C@@H](NC(=O)C(=O)c2c(C)c(C(=O)Nc3ccc(F)c(C)c3)c(C)n2C)CC1` [Example 26, ethyl 2-(((1s,4s)-4-(2-(4-((4-fluoro-3-methylphenyl)carbamoyl)-1,3,5-trimethyl-1H-pyrrol-2-yl)-2-oxoacetamido)cyclohexyl)oxy) acetate], the EC50 with HBV was above 1 µM. The molecule further returned a CC50 at 7 days in data set [1] above 30 µM.
In the same order, the values of `Cc1cc(NC(=O)c2c(C)c(C(=O)C(=O)N[C@H]3CC[C@@H](O)CC3)n(C)c2C2CC2)ccc1F` [Example 115, 2-cyclopropyl-N-(4-fluoro-3-methylphenyl)-5-(2-(((1s,4s)-4-hydroxycyclohexyl)amino)-2-oxoacetyl)-1,4-dimethyl-1H-pyrrole-3-carboxamide] are below 0.05 µM and above 30 µM.
In the same order, the values of `Cc1c(C(=O)Nc2ccc(F)c(C#N)c2)c(C)n(C)c1C(=O)C(=O)NC1(C)CC(O)C1` (stereo not shown) [Example 83, N-(3-cyano-4-fluorophenyl)-5-(2-((3-hydroxy-1-methylcyclobutyl)amino)-2-oxoacetyl)-1,2,4-trimethyl-1H-pyrrole-3-carboxamide] are below 0.05 µM and above 30 µM.
For `CCC1(NC(=O)C(=O)c2c(C)c(C(=O)Nc3ccc(F)c(C)c3)c(C)n2C)CCN(C(=O)c2cnn(C)c2)CC1` [Example 38, 5-(2-((4-ethyl-1-(1-methyl-1H-pyrazole-4-carbonyl)piperidin-4-yl)amino)-2-oxoacetyl)-N-(4-fluoro-3-methylphenyl)-1,2,4-trimethyl-1H-pyrrole-3-carboxamide], the EC50 with HBV was below 0.05 µM. This molecule also registered a CC50 at 7 days in data set [1] above 30 µM.
In the same order, the values of `Cc1cc(NC(=O)c2c(C)c(C(=O)C(=O)N[C@]3(C)C[C@H](O)C3)n(C)c2C2CCCCC2)ccc1F` [Example 116, 2-cyclohexyl-N-(4-fluoro-3-methylphenyl)-5-(2-(((1s,3s)-3-hydroxy-1-methylcyclobutyl)amino)-2-oxoacetyl)-1,4-dimethyl-1H-pyrrole-3-carboxamide] are 0.5 to 1 µM and above 30 µM.
In the same order, the values of `CCC1(NC(=O)C(=O)c2c(C)c(C(=O)Nc3ccc(F)c(C)c3)c(C)n2C)CCN(c2nccs2)CC1` [Example 43, 5-(2-((4-ethyl-1-(thiazol-2-yl)piperidin-4-yl)amino)-2-oxoacetyl)-N-(4-fluoro-3-methylphenyl)-1,2,4-trimethyl-1H-pyrrole-3-carboxamide] are below 0.05 µM and 5 to 30 µM.
In the same order, the values of `Cc1c(C(=O)Nc2cc(Cl)cc(Cl)c2)c(C)n(C)c1C(=O)C(=O)N[C@H]1CC[C@@H](O)CC1` [Example 10, N-(3,5-dichlorophenyl)-5-(2-(((1s,4s)-4-hydroxycyclohexyl)amino)-2-oxoacetyl)-1,2,4-trimethyl-1H-pyrrole-3-carboxamide] are below 0.05 µM and 5 to 30 µM.
